Earlier results as cited in patent US20240199641A1, “QUINAZOLINE-4(3H)-ONE DERIVATIVES AS NEGATIVE ALLOSTERIC MODULATORS OF METABOTROPIC GLUTAMATE RECEPTOR 2” (Vanderbilt University, priority 2021, published 2024).
Like-named read-outs stand apart in the source and are kept apart here.

Key:
[1] = system: group II mGlu receptors
[2] = normal animals
[3] = mice
[4] = normal animals; remark: listed apart in the source
[5] = system: central mGlu2 and mGlu3 receptors; settings: in vivo
[6] = for activity in tail suspension test: Helpless (H) mice
[7] = C57Bl6/J mice
[8] = olfactory bulbectomized rats, repeated administration for 14 days
[9] = treatment for 7 days
[10] = CFS model
[11] = social isolation reared mice

Structure (SMILES) | antidepressant-like effects in mouse TST [2] | marble-burying behavior [3] | antidepressant-like effects in rat FST [4] | hypolocomotor effect of mGlu2/3 agonist LY379268 [5] | activity in tail suspension test [6] | immobility time in FST [7] | freezing behavior [10] | further results
CCCCCCCOC(=O)[C@@]1(F)[C@@H]2C[C@@H](OCc3ccc(Cl)c(Cl)c3)[C@@](N)(C(=O)O)[C@@H]21 [BCI-838] |  |  |  |  |  |  |  | duration of inhibition of group II mGlu receptors by brain concentration of active metabolite BCI-632 ([1]; once-daily oral dosing): 22 h; Dutch APP transgene-associated learning and memory impairment ([1]; three months of treatment): reversed; anxiolytic effects ([1]; three months of treatment): anxiolytic effects; levels of monomeric and oAβ peptides in hippocampus and cortex ([1]; three months of treatment, two AD mouse models): decreased; hippocampal progenitor cell proliferation ([1]; wild-type and Alzheimer's diseased mice, 3 months): stimulated
N[C@](CC1c2ccccc2Oc2ccccc21)(C(=O)O)[C@H]1C[C@@H]1C(=O)O [LY341495] | Antidepressant-like effects | significantly reduce | Antidepressant-like effects | achieved the same result | active | dose-dependently reduced |  | antidepressant effect in helpless mice ([6]; acute administration): potent antidepressant effect
N[C@]1(C(=O)O)[C@H]2[C@@H](C[C@H]1OCc1ccc(Cl)c(Cl)c1)[C@]2(F)C(=O)O [MGS0039] | Antidepressant-like effects | reduced | Antidepressant-like effects |  |  |  | significantly decreased | hyperactivity in the open field test [8]: attenuated; learning deficit in the passive avoidance test [8]: attenuated; spontaneous locomotor activity [3]: no significant change; number of escape failures [9]: significantly reduced; increased immobility in FST [11]: reversed
Cc1cc(-c2cccc(C3=Nc4cc(C)c(C(F)(F)F)cc4NC(=O)C3)c2)cc(C)n1 [RO4491533] |  |  |  | reversed | active | dose-dependently reduced |  | 
CN1C(=O)CN=C(c2ccccc2)c2cc(Cl)ccc21 [diazepam] |  |  |  |  |  |  | significantly decreased | 
CNCCC(Oc1ccc(C(F)(F)F)cc1)c1ccccc1 (centres unmarked) [fluoxetine] |  |  |  |  |  |  |  | antidepressant effect in helpless mice ([6]; chronic (21 days) treatment): full antidepressant effect
